# Test results: patent publication US20070232492A1, “Herbicidal Composition” (Ishihara Sangyo Kaisha, LTD., priority 2004, published 2007)
# Read-outs that look alike come from different tables or passages of the source.
# Tests used:
# Format in all cases: in vivo
# [1] = test system: barnyardgrass (Echinochloa oryzicola vasing); assay: Growth inhibition of barnyardgrass in paddy soil pots, application under submerged condition, visual rating (observed value) and Colby expected value; conditions: Echinochloa oryzicola, soil, read-out: Growth inhibition rate (%) Observed; for inhibition at 2.3 g/ha: 0.023 g/a; for inhibition at 4.5 g/ha: 0.045 g/a
# Summary of the method: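 Barnyardgrass (Echinochloa oryzicola vasing) seeds were sown in paddy field soil in 1/10,000 are pots and kept irrigated at a water depth of 3.5 cm. Wettable powders of the active ingredients were diluted with water and applied under submerged conditions at the prescribed amounts. Growth was visually scored from 0% (as untreated) to 100% (complete kill), and expected values were calculated with Colby's formula.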
# [2] = test system: flatsedge (Cyperus serotinus); assay: Growth inhibition of flatsedge (planted tubers) in paddy soil pots, application under submerged condition, visual rating and Colby expected value; conditions: Cyperus serotinus, soil, 696 h, 2.8 to 3.2 leaf stage, 29 days after application, read-out: Growth inhibition rate (%) Observed
# Excerpt: (§1) When the herbicidal activity in a case where two active ingredients are combined, is larger than the simple sum of the respective herbicidal activities of the two active ingredients (the expected activity), it is called a synergistic effect. The activity expected by the combination of two active ingredients can be calculated as follows (Colby S. R., “Weed”, vol. 15, p. 20-22, 1967). E=p+q−(p×q÷100) where p: growth inhibition rate when treated with x (g/a) of herbicide X,
# (§2) q: growth inhibition rate when treated with y (g/a) of herbicide Y,
# (§3) E: growth inhibition rate expected when treated with x (g/a) of herbicide X and y (g/a) of herbicide Y.
# (§4) Namely, when the actual growth inhibition rate (observed value) is larger than the growth inhibition rate by the above calculation (expected value), the activity by the combination can be regarded as showing a synergistic effect.
# (§5) Growth inhibition rate (%)=0% (equivalent to the non-treated area) to 100% (complete kill)
# (§6) Paddy field soil was put into a 1/10,000 are pot, and tubers of flatsedge (Cyperus serotinus) were planted and left to stand under an irrigated condition with a water depth of 3.5 cm. When flatsedge reached 2.8 to 3.2 leaf stage, wettable powders of compound A2 and compound (B1.2) were, respectively, diluted with water and applied under submerged condition so that the active ingredients became the prescribed amounts, respectively. The state of growth was visually observed 29 days after application, and evaluation and calculation were carried out in the same manner as in the above Test Example 1.
# Paddy field soil was put into a 1/3,000 are pot, and tubers of flatsedge (Cyperus serotinus) were planted and left to stand under an irrigated condition with a water depth of 3.5 cm. When flatsedge reached 4 leaf stage, a wettable powder of compound A2 and an emulsifiable concentrate of compound C4 were, respectively, diluted with water and applied under submerged condition so that the active ingredients became the prescribed amounts, respectively. The state of growth was visually observed 21 days after application, and the growth inhibition rate (%) evaluated in the same manner as in the above Test Example 1 (observed value) and the growth inhibition rate (%) calculated by the above-mentioned Colby method (expected value) are shown in Table 32.
# as §6, with “2.5” for “2.8”, “3.0” for “3.2”, “A2, compound (D2.3)” for “A2”, “(B4.1)” for “(B1.2)”, “30” for “29”, “evaluated” for “evaluation and calculation were carried out”
# as §6, with “2.5” for “2.8”, “3.0” for “3.2”, “A2, compound (D2.3)” for “A2”, “(B6.1)” for “(B1.2)”, “30” for “29”, “evaluated” for “evaluation and calculation were carried out”
# Paddy field soil was put into a 1/10,000 are pot, and tubers of flatsedge (Cyperus serotinus) were planted and left to stand under an irrigated condition with a water depth of 3.5 cm. When flatsedge reached 2.5 to 3.0 leaf stage, wettable powders of compound A2, compound (D2.3) and compound (B8.1) were, respectively, diluted with water and applied under submerged condition so that the active ingredients became the prescribed amounts, respectively. […]
# [3] = Growth inhibition of mixed broadleaf paddy weeds in paddy soil pots, application under submerged condition, visual rating and Colby expected value; conditions: mixed broadleaf paddy weeds, soil, 504 h; 0.12 g/a; false pimpernel one leaf-pair stage; 21 days after application; read-out: Growth inhibition rate (%) Observed
# Excerpt: as §1, §2, §3, §4, §5
# Paddy field soil was put into a 1/1,700 are pot, and mixed seeds of false pimpernel (Lindernia pyxidaria), abunome (Dopatrium junceum), long stem waterwort (Elatine triandra SCHK.) and toothcup (Rotala india) were sown and left to stand under an irrigated condition with a water depth of 3.5 cm. When false pimpernel reached one leaf-pair stage, wettable powders of compound A2 and compound (B1.2) were, respectively, diluted with water and applied under submerged condition so that the active ingredients became the prescribed amounts, respectively. The state of growth was visually observed 21 days after application, and evaluation and calculation were carried out in the same manner as in the above Test Example 1.
# Paddy field soil was put into a 1/1,700 are pot, and mixed seeds of false pimpernel (Lindernia pyxidaria), abunome (Dopatrium junceum), long stem waterwort (Elatine triandra SCHK.) and toothcup (Rotala india) were sown and left to stand under an irrigated condition with a water depth of 3.5 cm. When false pimpernel reached two leaf-pair stage, a wettable powder of compound A2 and an emulsifiable concentrate of compound (B8.1) were, respectively, diluted with water and applied under submerged condition so that the active ingredients became the prescribed amounts, respectively. The state of growth was visually observed 22 days after application, and evaluation and calculation were carried out in the same manner as in the above Test Example 1.
# [4] = 504 h, 3.0 to 3.3 leaf stage, 21 days after application
# [5] = 528 h, 2.5 to 3.0 leaf stage, 22 days after application
smiles,measurement,setting,value
"COc1cc(OC)nc(NC(=O)NS(=O)(=O)c2c(-c3nnn(C)n3)cnn2C)n1 [Compound (B1.2), azimsulfuron]",inhibition at 2.3 g/ha,[1]; [4],0%
same,inhibition at 4.5 g/ha,[1]; [4],7%
same,inhibition at 2.3 g/ha,[1]; [5],0%
same,inhibition at 4.5 g/ha,[1]; [5],53%
same,inhibition at 3 g/ha,"[1]; 696 h, 0.03 g/a, 2.4 to 3.2 leaf stage, 29 days after application, Test Example 45",30%
same,inhibition at 6 g/ha,"[1]; 696 h, 0.06 g/a, 2.4 to 3.2 leaf stage, 29 days after application, Test Example 45",57%
same,inhibition at 7.5 g/ha,"[1]; 696 h, 0.075 g/a, 2.4 to 3.2 leaf stage, 29 days after application, Test Example 45",60%
same,inhibition at 1.25 g/ha,[2]; 0.0125 g/a,20%
same,inhibition at 1.5 g/ha,[2]; 0.015 g/a,33%
same,inhibition at 1.88 g/ha,[2]; 0.0188 g/a,58%
same,inhibition at 12 g/ha,[3],60%
